Results from ChEMBL document CHEMBL3988442, “University of Dundee, Small-Polar-MMV Screening Library” (2021).
Several values for one entry are separate records, joined by “and”; a condition that tells them apart may be missing. Equal entries are not always repeated.

Test system: Wolbachia pipientis
Assay: Anti-Wolbachia Cell-Based Screen
Assay type: functional
Conditions: for IC50: Wolbachia pipientis

Row | Compound | pIC50 | IC50
1 | CCOc1nnc(CN2CCN(CCOC)CC2)s1 |  | > 10 µM
2 | CNC(=O)c1cn[nH]c1C1(C)CCCN(Cc2nccn2C(C)C)C1 (stereo unspecified) |  | > 10 µM
3 | Cc1nn(C)c2nc(N3CCCCC3c3cccnc3)sc12 (stereo unspecified) | 6.07 | 1.24 µM
4 | O=C1CC(c2ccc3ccccc3n2)c2c(n[nH]c2C2CCC2)N1 (stereo unspecified) |  | > 10 µM
5 | COc1ccc(Br)c(C(=O)NCC2CC2)c1 |  | > 10 µM
6 | Cc1nn(C)c2nc(N3CCCC3c3nccs3)sc12 (stereo unspecified) | 5.818 | 1.82 µM
7 | CN(C)c1cc(CNCc2ccc(N3CCOCC3)cc2)ccn1 |  | > 10 µM
8 | Cc1ccccc1CNC(=O)Cn1nc(-c2ccc(F)cc2)oc1=O |  | > 10 µM
9 | CNc1ncc(CN(C)c2ncnc3onc(C)c23)cn1 |  | > 10 µM
10 | Cc1cc(CN2CCCC2)cc(Oc2nc(C)cnc2C)c1 |  | > 10 µM
11 | CC1(C(=O)N2CCN(c3ncccn3)CC2)CNCCO1 (stereo unspecified) |  | > 10 µM
12 | O=C(CC1CC1)NCc1cc(=O)n2c(n1)CN(Cc1ccoc1)CCC2 |  | > 10 µM
13 | COc1ccc(C(C)N(C)Cc2c(C(C)C)[nH]c3ncccc23)cc1 (stereo unspecified) |  | > 10 µM
14 | c1ccc(-c2nnc(N3CCCC4(CCOC4)C3)s2)cc1 (stereo unspecified) | 5.105 | > 10 µM
15 | Cn1c(=O)n(C)c2cc(C3SCC(=O)Nc4ccsc43)ccc21 (stereo unspecified) | 5.481 | 2.44 µM
16 | Cc1ccc(-c2nc(CN3CCn4c(C)nnc4C3)cs2)o1 |  | > 10 µM
17 | COc1ccc(C(C#N)NC(=O)Cc2ccc(F)c(F)c2)c(OC)c1 (stereo unspecified) | 5.528 | 3 µM
18 | CC(c1ccco1)N(C(=O)c1cc2c([nH]c1=O)CCCC2=O)C1CC1 (stereo unspecified) |  | > 10 µM

More lines, now with the values ahead:

Row | pIC50 | IC50 | Compound
19 | 5.613 | 1.92 µM | CCc1cc(N(C)Cc2nonc2C)nc(N(C)C)n1
20 | 5.579 | 4.79 µM | CCc1cc(N(C)Cc2cc[nH]n2)n2nc(C)c(C)c2n1
21 | 5.243 | 3.56 µM | O=C(CNC(=O)c1ccc(Cl)cc1)Nc1nccs1
22 |  | > 10 µM | CCc1ccc(CN(C(=O)CCn2cc(S(N)(=O)=O)cn2)C2CC2)cc1
23 | < 5 | 6.17 µM | O=C(Nc1ccccn1)NC(CCCO)c1ccccc1 (stereo unspecified)
24 | 5.166 and 5.523 |  | Cn1ccnc(Nc2ccc3c(c2)CCN3C(=O)c2ccoc2)c1=O
25 | 5.956 | 1.47 µM | CCOc1ccc2nc(NC(=O)c3c(C(=O)O)cnn3C)sc2c1
26 | 5.126 | 5.53 µM | CSc1ccc(NCc2csc(C)n2)cc1F
27 | 5.37 | 6.98 µM | c1ccc(O[C@H]2COCCN(Cc3c[nH]c4ccccc34)C2)cc1
28 | 5.021 | 8.03 µM | Cc1ccc(F)c2c1N(C(=O)Cc1c(C)nn(C)c1C)CCC2
29 | 5.24 | 6.09 µM | CCOC(=O)c1sc2ccsc2c1CNC(=O)C(C)(C)C#N
30 |  | > 10 µM | CC(=O)N1CCN(C(=O)CCn2c(C)nc3ccccc3c2=O)CC1
31 |  | > 10 µM | OC1(CN2CCC(Oc3cccc(C(F)(F)F)c3)CC2)CNCCOC1 (stereo unspecified)
32 | 5.079 | 8.83 µM | COCC(=O)Nc1ccc(-c2noc([C@@H]3CCCN3C(C)C)n2)cn1
33 |  | > 10 µM | COc1ncccc1C(=O)N1CCc2c(ncnc2N2CCOCC2)C1
34 |  | > 10 µM | O=C(CCc1ccccc1Cl)NS(=O)(=O)c1ccc2c(c1)OCCO2
35 |  | > 10 µM | O=C(CCc1ccc(Cl)s1)N1CCC(N2CCNC2=O)CC1
36 |  | > 10 µM | CCC(CC)C(O)CNC(=O)Nc1cc(C)nn1C (stereo unspecified)
37 | 5.26 | > 10 µM | c1cc(CN2CCc3cncnc3C2)c2c(c1)OCCO2
38 |  | > 10 µM | Cc1cc(NC(=O)NCC(O)c2ccc(F)c(F)c2)n(C)n1 (stereo unspecified)
39 | 5.338 | 5.15 µM | CCC(CC)C(=O)N1CCCc2c(cnn2C)C1
40 |  | > 10 µM | CCc1cc(C(=O)N2CCC3(CCCN(CC4CC4)C3=O)C2)cs1 (stereo unspecified)
41 | 6.155 and 6.458 |  | Cc1cc(N(Cc2cccs2)C2CC2)n2nc(C(F)(F)F)nc2n1
42 | 5.079 | > 10 µM | Cc1ccc(C(=O)N2CCC3(CC2)CN(CCN(C)C)C(=O)O3)c(F)c1
43 |  | > 10 µM | c1ccc(-c2nc(CN3CCCC3Cn3cncn3)no2)cc1 (stereo unspecified)
